Read-outs that look alike come from different tables or passages of the source.
Test system: C. parvum strain UGA1
Assay: C. parvum growth inhibition assay (Nluc luminescence in HCT-8 cells)
Type: cell-based, Cryptosporidium parvum
Conditions: Cryptosporidium parvum; for inhibition at 1 µM / inhibition at 10 µM: HCT-8; for inhibition at 1 µM: read-out: % inh @ 1 uM C. parvum; for inhibition at 10 µM: read-out: % inh @ 10 uM C. parvum; for EC50: HCT-8, 48 h, C. parvum growth inhibition in HCT-8 cells, 48 hours, 6 concentrations 10-0.04 μM
Procedure: C. parvum GROWTH INHIBITION ASSAYS
C. parvum growth inhibition was performed as described in Hulverson M A, Vinayak S, Choi R, Schaefer D A, Castellanos-Gonzalez A, Vidadala R S R, Brooks C F, Herbert G T, Betzer D P, Whitman G R, Sparks H N, Arnold S L M, Rivas K L, Barrett L K, White A C Jr, Maly D J, Riggs M W, Striepen B, Van Voorhis W C, Ojo K K. Bumped-Kinase Inhibitors for Cryptosporidiosis Therapy. J Infect Dis. 2017 Apr. 15; 215(8):1275-1284.
C. parvum strain UGA1 […] (ATCC, Manassas, VA) were prepared as described below. HCT-8 cells were inoculated onto 96-well plates were grown for 48 hours to 90%-100% confluence. C. parvum oocysts were then incubated for 10 minutes in 10% bleach at room temperature and washed with Dulbecco's phosphate-buffered saline. One thousand oocysts per well were applied to plates with Roswell Park Memorial Institute 1640 (RPMI) medium supplemented with 10% horse serum and 1% penicillin/streptomycin. Compounds of Formula (I), Formula (II), and Formula (III) were added to the plates at different concentrations and the plates were incubated for 48 hours. Following the incubation, the monolayers were lysed for 1 hour before a luciferase reagent was added, and relative luminescence units were determined.
For certain compounds of Formula I, Formula II, and Formula III, EC50 values were calculated using curves calculated from Prism after analysis of C. parvum growth inhibition at 6 different concentrations: 10, 3.33, 1.11, 0.37, 0.12, and 0.04 μM. […] For certain compounds of Formula I, Formula II, and Formula III, single point inhibition values of 0-33% (activity level D), between 33% and 66% (activity level E), and between 67% and 100% (activity level F) are also shown in Table 1 below.

[1] = single point inhibition at 1 uM
[2] = single point inhibition at 10 uM
[3] = single point inhibition @ 10 uM

SMILES | inhibition at 1 µM [1] | inhibition at 10 µM [2] | EC50 | also measured
Cn1cc(C(=O)Nc2cc3[nH]c(-c4ccnc(OC5CC(O)C5)n4)cc3cn2)cn1 (stereo not shown) [Example 324, N-(2-(2-(3-hydroxycyclobutoxy)pyrimidin-4-yl)-1H-pyrrolo[3,2-c]pyridin-6-yl)-1-methyl-1H-pyrazole-4-carboxamide] | 0 to 33% | 0 to 33% |  | 
CC(C)n1c(-c2ccnc(NCC(F)(F)F)n2)cc2cnc(NC(=O)c3cnn(C)c3)cc21 [Example 338, N-(1-isopropyl-2-(2-(2,2,2-trifluoroethylamino)pyrimidin-4-yl)-1H-pyrrolo[3,2-c]pyridin-6-yl)-1-methyl-1H-pyrazole-4-carboxamide] | 0 to 33% | 0 to 33% |  | 
CO[C@H]1C[C@@H](C(=O)Nc2cc3[nH]c(-c4ccnc(C)c4)cc3cn2)C1 [Example 191, (1s,3s)-3-methoxy-N-(2-(2-methylpyridin-4-yl)-1H-pyrrolo[3,2-c]pyridin-6-yl)cyclobutanecarboxamide] |  |  |  | inhibition at 1 µM (single point inhibition @ 1 uM): 0 to 33%; inhibition at 10 µM [3]: 67 to 100%
COc1nccc(-c2cc3cnc(NC(=O)[C@H]4C[C@@H](O)C4)cc3[nH]2)n1 [Example 167, (1s,3s)-3-hydroxy-N-(2-(2-methoxypyrimidin-4-yl)-1H-pyrrolo[3,2-c]pyridin-6-yl)cyclobutanecarboxamide] |  |  |  | inhibition at 1 µM (single point inhibition @ 1 uM): 33 to 66%; inhibition at 10 µM [3]: 67 to 100%
Cc1nn(C)cc1C(=O)Nc1cc2[nH]c(-c3ccnc(OC(C)C(F)(F)F)n3)cc2cn1 (stereo in doubt) [Example 136, (S)-1,3-dimethyl-N-(2-(2-(1,1,1-trifluoropropan-2-yloxy)pyrimidin-4-yl)-1H-pyrrolo[3,2-c]pyridin-6-yl)-1H-pyraozle-4-carboxamide] |  |  |  | inhibition at 1 µM (single point inhibition @ 1 uM): 0 to 33%; inhibition at 10 µM [3]: 67 to 100%
Cc1cc(-c2[nH]c3cc(NC4CCOC4)ncc3c2C)ccn1 (stereo in doubt) [Example 368, (R)-3-methyl-2-(2-methylpyridin-4-yl)-N-(tetrahydrofuran-3-yl)-1H-pyrrolo[3,2-c]pyridin-6-amine] |  |  | > 1 µM | 
CCOc1nccc(-c2cc3cnc(NC4CCOCC4)cc3[nH]2)n1 [Example 377, 2-(2-ethoxypyrimidin-4-yl)-N-(tetrahydro-2H-pyran-4-yl)-1H-pyrrolo[3,2-c]pyridin-6-amine] |  |  | > 1 µM | 
COc1ccc(C(=O)Nc2cc3[nH]c(-c4ccnc(C)c4)cc3cn2)cc1OC [Example 296, 3,4-dimethoxy-N-(2-(2-methylpyridin-4-yl)-1H-pyrrolo[3,2-c]pyridin-6-yl)benzamide] | 0 to 33% | 0 to 33% |  | 
Cc1cc2cnc(NC(=O)c3cnn(C)c3)cc2[nH]1 [Example 285, 1-methyl-N-(2-methyl-1H-pyrrolo[3,2-c]pyridin-6-yl)-1H-pyrazole-4-carboxamide] | 0 to 33% | 0 to 33% |  | 
Cn1cc(-c2cc3cnc(NC4CCOCC4)cc3n2C)cn1 [Example 223, 1-methyl-2-(1-methyl-1H-pyrazol-4-yl)-N-(tetrahydro-2H-pyran-4-yl)-1H-pyrrolo[3,2-c]pyridin-5-amine] | 0 to 33% | 33 to 66% |  | 
CN(CC(F)(F)F)c1nccc(-c2cc3cnc(NC4CCOCC4)cc3n2C)n1 [Example 30, 1-Methyl-2-(2-(methyl(2,2,2-trifluoroethyl)amino)pyrimidin-4-yl)-N-(tetrahydro-2h-pyran-4-yl)-1H-pyrrolo[3,2-c]pyridin-6-amine] |  |  | > 1 µM | inhibition at 1 µM (single point inhibition @ 1 uM): 0 to 33%
Cc1cc(-c2cc3cnc(NC(=O)CN(C)C)cc3n2C)ncn1 [Example 127, 2-(dimethylamino)-N-(1-methyl-2-(6-methylpyrimidin-4-yl)-1H-pyrrolo[3,2-c]pyridin-6-yl)acetamide] |  |  | > 1 µM | 
Cn1c(-c2cc(NCC(F)(F)F)ncn2)cc2cnc(NC3CCOCC3)cc21 [Example 365] |  |  | > 1 µM | 
Cn1cc(C(=O)Nc2cc3[nH]c(-c4ccnc(C#N)c4)cc3cn2)cn1 [Example 239, N-(2-(2-cyanopyridin-4-yl)-1H-pyrrolo[3,2-c]pyridin-6-yl)-1-methyl-1H-pyrazole-4-carboxamide] | 0 to 33% | 33 to 66% |  | 
O=C(Nc1cc2[nH]c(-c3ccnc(OCC(F)F)n3)cc2cn1)c1cnn(CC2CCCO2)c1 (stereo in doubt) [Example 234, (S)-N-(2-(2-(2,2-difluoroethoxy)pyrimidin-4-yl)-1H-pyrrolo[3,2-c]pyridin-6-yl)-1-((tetrahydrofuran-2-yl)methyl)-1H-pyrazole-4-carboxamdie] | 33 to 66% | 33 to 66% |  | 
COc1ccc(Nc2cc3c(cn2)cc(-c2cnn(C)c2)n3C)c(C)c1 [Example 258, N-(4-methoxy-2-methylphenyl)-1-methyl-2-(1-methyl-1H-pyrazol-4-yl)-1H-pyrrolo[3,2-c]pyridin-6-amine] | 0 to 33% | 0 to 33% |  | 
Cc1cc(-c2cc3cnc(NC(=O)c4c(C)noc4C)cc3[nH]2)ccn1 [Example 221, 3,5-dimethyl-N-(2-(2-methylpyridin-4-yl)-1H-pyrrolo[3,2-c]pyridin-6-yl)isoxazole-4-carboxamide] | 0 to 33% | 33 to 66% |  | 
O=C(Nc1cc2[nH]c(-c3cccnc3)cc2cn1)C1CCCC1 [Example 276, N-(2-(pyridin-3-yl)-1H-pyrrolo[3,2-c]pyridin-6-yl)cyclopentanecarboxamide] | 0 to 33% | 0 to 33% |  | 
Cc1cc(-c2cc3cnc(NC(=O)c4ncoc4C)cc3[nH]2)ccn1 [Example 290, 5-methyl-N-(2-(2-methylpyridin-4-yl)-1H-pyrrolo[3,2-c]pyridin-6-yl)oxazole-4-carboxamide] | 0 to 33% | 0 to 33% |  | 
FC(F)(F)CNc1cc(-c2cc3cnc(NC4CCOCC4)cc3[nH]2)ccn1 [Example 363, N-(tetrahydro-2H-pyran-4-yl)-2-(2-(2,2,2-trifluoroethylamino)pyridin-4-yl)-1H-pyrrolo[3,2-c]pyridin-6-amine] |  |  | < 0.5 µM | 
Cc1cccc(-c2cc3cnc(NC(=O)C4CC4)cc3n2C)c1 [Example 346, N-(1-methyl-2-m-tolyl-1H-pyrrolo[3,2-c]pyridin-6-yl)cyclopropanecarboxamide] |  |  | > 1 µM | 
Cn1c(-c2ccnc(NCC(F)(F)F)n2)cc2cnc(NC(=O)c3cnn(C4CCOC4)c3)cc21 (stereo in doubt) [Example 142, (R)-N-(1-methyl-2-(2-(2,2,2-trifluoroethylamino)pyrimidin-4-yl)-1H-pyrrolo[3,2-c]pyridin-6-yl)-1-(tetrahydrofuran-3-yl)-1H-pyrazole-4-carboxamide] |  |  |  | inhibition at 1 µM (single point inhibition @ 1 uM): 67 to 100%; inhibition at 10 µM [3]: 67 to 100%
Cc1c(C(=O)Nc2cc3[nH]c(-c4ccncc4)cc3cn2)cnn1C [Example 166, 1,5-dimethyl-N-(2-(pyridin-4-yl)-1H-pyrrolo[3,2-c]pyridin-6-yl)-1H-pyrazole-4-carboxamide] |  |  |  | inhibition at 1 µM (single point inhibition @ 1 uM): 0 to 33%; inhibition at 10 µM [3]: 67 to 100%
Cn1c(-c2ccnc(NCC(F)(F)F)n2)cc2cnc(NC3CCOCC3)cc21 [Example 358, 1-methyl-N-(tetrahydro-2H-pyran-4-yl)-2-(2-(2,2,2-trifluoroethylamino)pyrimidin-4-yl)-1H-pyrrolo[3,2-c]pyridin-6-amine] |  |  | < 0.5 µM | 
Cc1cc(-c2cc3cnc(NC(=O)C(C)O)cc3[nH]2)ccn1 (stereo in doubt) [Example 263, (R)-2-hydroxy-N-(2-(2-methylpyridin-4-yl)-1H-pyrrolo[3,2-c]pyridin-6-yl)propanamide] | 0 to 33% | 0 to 33% |  | 
Cc1cc(-c2cc3cnc(NC(=O)c4cc(C(F)(F)F)n(C)n4)cc3[nH]2)ccn1 [Example 294, 1-methyl-N-(2-(2-methylpyridin-4-yl)-1H-pyrrolo[3,2-c]pyridin-6-yl)-5-(trifluoromethyl)-1H-pyrazole-3-carboxamide] | 0 to 33% | 0 to 33% |  | 
Cc1cc(-c2cc3cnc(N)cc3n2C)ncn1 [Example 125, 1-methyl-2-(6-methylpyrimidin-4-y)-1H-pyrrolo[3,2-c]pyridin-6-amine] |  |  | > 1 µM | 
CCOc1nccc(-c2cc3cnc(NC(=O)c4cnn([C@H]5C[C@H](O)C5)c4)cc3[nH]2)n1 [Example 270, N-(2-(2-ethoxypyrimidin-4-yl)-1H-pyrrolo[3,2-c]pyridin-6-yl)-1-((1r,3r)-3-hydroxycyclobutyl)-1H-pyrazole-4-carboxamide] | 0 to 33% | 0 to 33% |  | 
Cc1cc(-c2cc3cnc(NC(=O)C4CC4)cc3n2CCO)ncn1 [Example 55, N-(1-(2-hydroxyethyl)-2-(6-methylpyrimidin-4-yl)-1H-pyrrolo[3,2-c]pyridin-6-yl)cyclopropanecarboxamide] |  |  | > 1 µM | 

— patent US20240124444A1 (Celgene Corporation, priority 2020, published 2024)
